Patent US8313740B2 (priority 2006, dated 2012)

System: MC38-HER-2 cells
Conditions: mouse, in vivo

For `CC(=O)O[C@@]12CO[C@@H]1C[C@H](O)[C@@]1(C)C(=O)[C@H](O)C3=C(C)[C@@H](OC(=O)[C@H](O)[C@@H](NC(=O)OC(C)(C)C)c4ccccc4)C[C@@](O)([C@@H](OC(=O)c4ccccc4)[C@H]21)C3(C)C` [Docetaxel, docetaxel], the “tumor growth, subset A” value was “modest and transient delay of tumor growth”, the “tumor growth, subset B” value was “had no effect on tumor growth” and the “tumor growth, subset C” value was “had no effect on tumor growth”.
